From US20210128730A1, “METHODS FOR TREATING TUMORS” (NH THERAGUIX, priority 2017, published 2021)
Residues, ends and D or L forms follow the SMILES beside them. *: point of attachment. Cbz = O=C(OCc1ccccc1)*; CH2F = FC*

What was measured:
Format in all cases: cell-based, human
[1] = test system: p21; assay: p21 expression by fluorescence microscopy and immunoblot; conditions: HCT116 treated with XR alone or GdBN+XR
Experimental: (§1) HCT116 cells were seeded in 6-well plates and incubated at 37° C. during 1 hour with indicated concentrations of GdBN. Then, cells were irradiated with X-ray irradiator (1 Gy/min, 200 keV, 15 mA, 2 mm copper thickness, X-RAD 320, Precision X-Ray) or with gamma-ray irradiator (IBL-637, Cs^137, 1 Gy/min, gamma CIS-BioInternational, IBA, Saclay, France). Cells were harvested at indicated time points after irradiation for subsequent experiments. Cellular cannibalism was determined as previously described^13. […] Cells are then co-cultured for the indicated time, in presence of the pharmacological inhibitor of ROCK, Y27632 (30 μM, TOCRIS) or the pan-caspase inhibitor, zVAD-fmk (100 μM, Calbiochem). […] Cells were counterstained with Hoechst 33342 (Invitrogen) and analyzed by fluorescent confocal microscopy on a Zeiss LSM510 or by fluorescent microscopy on a LEICA DMi8 using a 63× objective. […] Cytofluorometric determinations were carried out on Guava EasyCyte (Millipore EMD) and data were analyzed by means with Incyte software (Millipore). Cell cycle distributions were assessed with 10 μg/ml of Hoechst 33342 (Invitrogen), as previously described^14. Cell fluorescence was quantified using LSR II™ flow cytometer (Becton-Dickinson). Fluorescence histograms were analyzed with Kaluza software version 1.5. […]

[2] = test system: ROCK1; assay: ROCK1 activation by immunoblot of MLC2 serine 19 phosphorylation (MLC2S19*); conditions: 30 μM Y27632, 24 hours; XR- or GdBN+XR-treated HCT116
Experimental: Total cell lysates were prepared in lysis buffer (0,1% NP40 ; 200 mM HEPES ; 100 mM KCl; 1 mM EDTA; 1% Glycerol final concentration) supplemented with proteases and phosphatases inhibitors cocktail (EDTA-free inhibitors, Roche-diagnostics, Meylan, France). Protein extracts were quantified using the Bradford assay (Bio-Rad Laboratories, Hercules, Calif., USA). Protein extracts (20-40 μg) were run onto 4-12% NuPAGE Bis-tris gel (Invitrogen) and transferred onto nitrocellulose membrane at 4° C.

[3] = test system: HCT116 cells; assay: Cellular cannibalism (cell engulfment) in CMTMR/CMFDA co-culture, confocal microscopy
Experimental: as §1

[4] = test system: HCT116 cells; assay: Engulfed (target) cell degradation: chromatin condensation and nuclear fragmentation by fluorescence microscopy; conditions: 100 μM Z-VAD-fmk; XR or GdBN+XR
Experimental: Cellular cannibalism was determined as previously described^13. Briefly, treated cells were stained with 10 μM of 5-(and-6)-(((4-Chloromethyl)Benzoyl)Amino)Tetramethylrhodamine (Cell Tracker Orange CMTMR, Invitrogen) and untreated cells were stained with 10 μM of 5-chloromethylfluorescein diacetate (Cell tracker Green CMFDA, Invitrogen). Cells are then co-cultured for the indicated time, in presence of the pharmacological inhibitor of ROCK, Y27632 (30 μM, TOCRIS) or the pan-caspase inhibitor, zVAD-fmk (100 μM, Calbiochem). […] Cells were counterstained with Hoechst 33342 (Invitrogen) and analyzed by fluorescent confocal microscopy on a Zeiss LSM510 or by fluorescent microscopy on a LEICA DMi8 using a 63× objective. […] Cytofluorometric determinations were carried out on Guava EasyCyte (Millipore EMD) and data were analyzed by means with Incyte software (Millipore). Cell cycle distributions were assessed with 10 μg/ml of Hoechst 33342 (Invitrogen), as previously described^14. Cell fluorescence was quantified using LSR II™ flow cytometer (Becton-Dickinson). Fluorescence histograms were analyzed with Kaluza software version 1.5. […]

SMILES: O=C(O)c1ccc(-c2c3nc(c(-c4ccc(C(=O)O)cc4)c4ccc([n-]4)c(-c4ccc(C(=O)O)cc4)c4nc(c(-c5ccc(C(=O)O)cc5)c5ccc2[n-]5)C=C4)C=C3)cc1.[Mn+3] [MnTBAP, Manganese (III)-tetrakis(4-benzoic acid) porphyrin]
- effect on cellular senescence (p21 expression, immunoblot) ([1]; 10 μM MnTBAP): reduced the cellular senescence

SMILES: CC(=O)N[C@@H](CS)C(=O)O [NAC, N-acetylcysteine]
- effect on cellular senescence (p21 expression, immunoblot) ([1]; 100 μM NAC): reduced the cellular senescence

SMILES: C[C@@H](N)[C@H]1CC[C@H](C(=O)Nc2ccncc2)CC1 [Y27632]
- inhibition of ROCK1 (MLC2S19* immunoblot) [2]: inhibition of ROCK1
- effect on cellular cannibalism ([3]; 30 μM Y27632, after 6 Gy alone and after 6 Gy with 1.2 mM GdBN, 24 hours co-culture): inhibited the cellular cannibalism

SMILES: COC(=O)C[C@H](NC(=O)[C@H](C)NC(=O)[C@@H](NC(=O)OCc1ccccc1)C(C)C)C(=O)CF [Z-VAD-fmk, benzyloxycarboxyl-Val-Ala-Asp (OMe) fluoromethylketone] (Cbz-Val-Ala-Asp(OMe)-CH2F)
- effect on cellular engulfment ([3]; 100 μM Z-VAD-fmk, after XR or GdBN+XR, 24 h culture): not inhibited
- effect on target cell degradation [4]: failed to repress target cell degradation
